Test results: patent US11358977B2, “Deuterated pyridone amides and prodrugs thereof as modulators of sodium channels” (VERTEX PHARMACEUTICALS INCORPORATED, priority 2017, dated 2022)

Key:
[1] = In vivo pharmacokinetic study, rat IV; parameters: species or system Male Sprague Dawley rats
Experimental: General Procedures. Concentrations of the test compounds in plasma were determined using a high performance liquid chromatography/tandem mass spectrometry (HPLC/MS/MS) method. The test compounds along with the internal standard (IS) were extracted from plasma (20 μL) by direct protein precipitation with acetonitrile (1:25 ratio of plasma/acetonitrile). After centrifugation, the supernatant extract (10 μL) was injected onto the LC/MS/MS system. The HPLC system included a Phenomenex Luna C8 column, 3 micron, 2 mm diameter×30 mm long eluted with a gradient mobile phase consisting of 0.1% formic acid in water or in acetonitrile. The analytes were detected by MS/MS with Electrospray Ionization (ESI) in the mode of multiple reaction monitoring (MRM). The lower limit of quantitation (LLOQ) was 1.00 ng/mL. The linear range of the assay was from 1 to 3000 ng/mL. The assay accuracy was within 20% of the nominal values.
Plasma concentration-time profiles of the test compounds were analyzed by noncompartmental pharmacokinetic methods using PK module in Watson, Version 7.4.2 (Thermo Scientific). Pharmacokinetic parameters including AUCa11, AUC0-∞, C0, Cl, Vss and t1/2 were determined.
Descriptive statistical data of plasma concentrations and pharmacokinetic parameter estimates were calculated, including the mean, standard deviation (SD), and coefficient of variation (% CV) using Microsoft Excel 2010.
Rat IV Study. Compounds 7 and 10 were administered simultaneously in a single intravenous bolus to Male Sprague Dawley rats (n=3) via jugular cannula. The nominal dose of each compound was 0.5 mg/kg. The cassette dosing solution was formulated in D5W with additives Animals had free access to food and water before and after dosing. Blood samples (approximately 0.25 mL each) were collected via a carotid artery catheter prior to dosing and at 0 (predose), 5 min, 10 min, 0.25, 0.5, 1, 2, 4, 8, 12, 24 hours post dose. Each blood sample was collected into a tube that was kept on wet ice and contained potassium EDTA as the anticoagulant. Plasma was separated and stored at approximately −70° C. until analysis.
Plasma samples and dosing solutions were analyzed using a liquid chromatography/tandem mass spectrometry (LC/MS/MS) method to determine the concentrations of Compounds 7 and 10 with a lower limit of quantitation (LLOQ) of 1.00 ng/mL. The average plasma concentrations of Compounds 7 and 10 are plotted in FIG. 5 and are also presented in tabular form in Table 5.
Plasma concentration vs. time data were subjected to noncompartmental pharmacokinetic (PK) analysis. To determined the measured dose of each compound, the dose formulation (50 μL) was aliquoted into a cluster tube at the time of dosing. Then 450 μL of DMSO was added to the tube to dilute it 10×. Then the diluted dosing solution was spiked into rat blank plasma with 100× dilution. The resulting plasma sample was analyzed along with the plasma samples collected from rats that were dosed with the compounds, using the same LC/MS/MS method.

human NaV 1.8 = molecular target: T1, human NaV 1.8 (Homo sapiens, UniProt Q9Y5Y9); assay: E-VIPR assay for NaV inhibition; format: cell-based; conditions: HEK cells expressing human NaV 1.8, E-VIPR, normalised to positive control 25 μM
T1 construct: expressed in transfected cells; host or cells: HEK cells, grown under blasticidin selection; KIR2.1 BacMam virus added before seeding
Source text: Sodium ion channels are voltage-dependent proteins that can be activated by inducing membrane voltage changes by applying electric fields. […] The instrument comprises a microtiter plate handler, an optical system for exciting the coumarin dye while simultaneously recording the coumarin and oxonol emissions, a waveform generator, a current- or voltage-controlled amplifier, and parallel electrode pairs that are inserted into assay plate wells. Under integrated computer control, this instrument passes user-programmed electrical stimulus protocols to cells within the wells of the microtiter plate.
The solution was made by adding 10% Pluronic F127 stock equal to combined volumes of CC2-DMPE and DiSBAC6(3).
Then 25 μL per well from compound plate was transferred to each cell plate.
A pre-stimulus recording was performed for 0.5 seconds to obtain the un-stimulated intensities baseline. The stimulatory waveform was followed by 0.5 seconds of post-stimulation recording to examine the relaxation to the resting state.

[2] = In vitro microsomal metabolic stability assay, human; format: in vitro ADME; conditions: human liver microsomes 0.25 mg/mL, 1.0 μM compound, NADPH
Experimental: (§1) Materials. Rat, Dog, Monkey and Human liver microsomes (20 mg/mL) were obtained from Xenotech, LLC (Lenexa, Kans.). P-nicotinamide adenine dinucleotide phosphate, reduced form (NADPH), magnesium chloride (MgCl2), and dimethyl sulfoxide (DMSO) were purchased from Sigma-Aldrich.
(§2) Methods. […] The 10 mM stock solutions were diluted to 100 μM in DMSO. In each cluster polypropylene tube, 190.7 μL of 100 mM phosphate buffer, pH 7.4 was added, then 2.5 μL of liver mocrosomes (20 mg/mL, rat, dog, monkey or human) was added, then a 2 μL aliquot of the 100 μM test compound was added, and the mixture was pre-warmed for 10 minutes. Reactions were initiated by addition of 4.8 μL of pre-warmed NADPH solution (100 mM in 100 mM phosphate buffer). The final reaction volume was 200 μL and contained 0.25 mg/mL rat, dog, monkey or human liver microsomes, 1.0 μM test compound, and 2.4 mM NADPH in 0.1 M potassium phosphate buffer, pH 7.4. The reaction mixtures were incubated at 37° C., and the reactions were quenched at 0, 15, 30 and 60 minutes by adding 200 μL of ice-cold quench solution (ACN:MeOH:0.1% formic acid in water 2:2:1) containing internal standard, n=3 per time point. The tubes were centrifuged and supernatants were analyzed for amounts of the test compound remaining by LC-MS/MS. The HPLC system included a Phenomenex Luna C8 column, 3 micron, 2 mm diameter×30 mm long eluted with a gradient mobile phase consisting of 0.1% formic acid in water or in acetonitrile. The analytes were detected by MS/MS with Electrospray Ionization (ESI) in the mode of multiple reaction monitoring (MRM). The injection volume was 10 μL.

[3] = In vitro microsomal metabolic stability assay, rat; format: in vitro ADME; conditions: rat liver microsomes 0.25 mg/mL, 1.0 μM compound, NADPH
Experimental: as §1, §2

[4] = In vitro microsomal metabolic stability assay, dog; format: in vitro ADME; conditions: dog liver microsomes 0.25 mg/mL, 1.0 μM compound, NADPH
Experimental: as §1, §2

[5] = male, Sprague Dawley, plasma, rat IV bolus, cassette, nominal 0.5 mg/kg, noncompartmental analysis

T1 sequence (Q9Y5Y9 whole entry): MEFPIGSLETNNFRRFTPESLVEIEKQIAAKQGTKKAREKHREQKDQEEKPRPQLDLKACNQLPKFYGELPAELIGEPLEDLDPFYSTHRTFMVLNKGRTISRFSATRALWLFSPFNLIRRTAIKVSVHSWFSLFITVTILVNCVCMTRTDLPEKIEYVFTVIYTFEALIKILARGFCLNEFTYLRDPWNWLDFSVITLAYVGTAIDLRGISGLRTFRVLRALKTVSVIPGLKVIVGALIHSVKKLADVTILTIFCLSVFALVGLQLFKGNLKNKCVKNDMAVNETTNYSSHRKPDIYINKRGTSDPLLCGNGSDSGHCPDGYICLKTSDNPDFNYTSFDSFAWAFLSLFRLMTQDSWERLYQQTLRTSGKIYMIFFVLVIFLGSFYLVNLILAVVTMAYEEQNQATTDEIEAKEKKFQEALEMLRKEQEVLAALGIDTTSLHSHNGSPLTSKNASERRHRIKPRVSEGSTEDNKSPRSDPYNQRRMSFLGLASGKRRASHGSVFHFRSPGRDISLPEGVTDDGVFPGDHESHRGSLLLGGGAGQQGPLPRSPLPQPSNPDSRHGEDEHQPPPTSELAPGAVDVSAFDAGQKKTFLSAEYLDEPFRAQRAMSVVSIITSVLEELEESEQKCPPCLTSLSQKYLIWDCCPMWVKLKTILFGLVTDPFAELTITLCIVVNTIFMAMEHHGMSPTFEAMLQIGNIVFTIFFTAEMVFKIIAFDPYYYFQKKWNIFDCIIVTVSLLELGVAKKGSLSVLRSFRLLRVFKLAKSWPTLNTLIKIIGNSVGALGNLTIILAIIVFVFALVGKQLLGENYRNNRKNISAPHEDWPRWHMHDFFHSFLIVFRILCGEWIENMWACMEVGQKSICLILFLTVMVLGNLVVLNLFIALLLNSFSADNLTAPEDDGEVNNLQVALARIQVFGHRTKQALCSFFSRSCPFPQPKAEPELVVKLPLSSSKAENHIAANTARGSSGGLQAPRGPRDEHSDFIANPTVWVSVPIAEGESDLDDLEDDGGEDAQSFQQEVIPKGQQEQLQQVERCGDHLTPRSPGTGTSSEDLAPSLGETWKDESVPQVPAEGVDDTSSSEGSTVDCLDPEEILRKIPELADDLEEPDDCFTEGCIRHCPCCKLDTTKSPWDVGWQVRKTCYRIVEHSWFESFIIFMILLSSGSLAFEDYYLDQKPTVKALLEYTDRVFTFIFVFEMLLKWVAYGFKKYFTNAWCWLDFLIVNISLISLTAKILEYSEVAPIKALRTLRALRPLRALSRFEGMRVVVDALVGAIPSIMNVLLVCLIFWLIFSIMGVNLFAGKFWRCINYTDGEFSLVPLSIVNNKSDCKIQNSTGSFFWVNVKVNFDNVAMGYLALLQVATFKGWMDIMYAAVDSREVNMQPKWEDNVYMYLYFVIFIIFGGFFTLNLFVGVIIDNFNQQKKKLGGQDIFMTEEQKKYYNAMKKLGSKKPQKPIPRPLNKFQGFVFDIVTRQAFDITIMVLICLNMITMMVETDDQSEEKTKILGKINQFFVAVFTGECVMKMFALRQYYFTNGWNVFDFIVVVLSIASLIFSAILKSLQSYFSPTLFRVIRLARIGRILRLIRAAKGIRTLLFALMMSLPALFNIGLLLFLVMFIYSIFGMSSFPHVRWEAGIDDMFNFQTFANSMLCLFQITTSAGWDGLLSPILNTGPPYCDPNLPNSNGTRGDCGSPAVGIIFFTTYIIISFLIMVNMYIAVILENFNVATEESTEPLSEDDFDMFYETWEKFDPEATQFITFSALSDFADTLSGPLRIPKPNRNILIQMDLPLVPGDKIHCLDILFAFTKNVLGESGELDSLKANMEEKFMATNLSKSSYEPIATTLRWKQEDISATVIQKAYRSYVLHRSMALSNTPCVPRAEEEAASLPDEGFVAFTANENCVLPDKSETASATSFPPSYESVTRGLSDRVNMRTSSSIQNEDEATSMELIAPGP

For `[2H]C([2H])([2H])c1cc(F)ccc1Oc1cc(C(F)(F)F)ccc1C(=O)Nc1cc[nH]c(=O)c1` [Compound 7, 2-(4-fluoro-2-(methyl-d3)phenoxy)-N-(2-oxo-1,2-dihydropyridin-4-yl)-4-(trifluoromethyl)benzamide], the “clearance compared with Compound 10” value ([1]; in rats, IV) was “lower”, the “t1/2 compared with Compound 10” value ([1]; in rats, IV) was “longer” and the concentration at 0.083 h ([1]; male, Sprague Dawley, plasma, rat IV bolus, cassette, nominal 0.5 mg/kg, 0.083 hours) was 420 ng/mL. The concentration at 0.167 h ([1]; male, Sprague Dawley, plasma, rat IV bolus, cassette, nominal 0.5 mg/kg, 0.167 hours) was 399 ng/mL, the concentration at 0.25 h ([1]; male, Sprague Dawley, plasma, rat IV bolus, cassette, nominal 0.5 mg/kg, 0.25 hours) was 371 ng/mL and the concentration at 0.5 h ([1]; male, Sprague Dawley, plasma, rat IV bolus, cassette, nominal 0.5 mg/kg, 0.5 hours) was 301 ng/mL. For the same compound, the concentration at 1 h ([1]; male, Sprague Dawley, plasma, rat IV bolus, cassette, nominal 0.5 mg/kg, 1 hour) was 256 ng/mL, the concentration at 2 h ([1]; male, Sprague Dawley, plasma, rat IV bolus, cassette, nominal 0.5 mg/kg, 2 hours) was 208 ng/mL and the concentration at 4 h ([1]; male, Sprague Dawley, plasma, rat IV bolus, cassette, nominal 0.5 mg/kg, 4 hours) was 154 ng/mL. The concentration at 8 h ([1]; male, Sprague Dawley, plasma, rat IV bolus, cassette, nominal 0.5 mg/kg, 8 hours) was 91.3 ng/mL, the concentration at 12 h ([1]; male, Sprague Dawley, plasma, rat IV bolus, cassette, nominal 0.5 mg/kg, 12 hours) was 47.6 ng/mL and the concentration at 24 h ([1]; male, Sprague Dawley, plasma, rat IV bolus, cassette, nominal 0.5 mg/kg, 24 hours) was 7.57 ng/mL. For the same compound, the AUC [1, 5] was 937 ng·h/mL, the AUC(0-inf) [1, 5] was 961 ng·h/mL and the C0 [1, 5] was 211 ng/mL. For the same compound, the clearance [1, 5] was 8.07 mL/min/kg, the half-life [1, 5] was 4.4 h and the Vd ([1]; male, Sprague Dawley, plasma, rat IV bolus, cassette, nominal 0.5 mg/kg, noncompartmental analysis, read-out: Vss) was 3 L/kg. For the same compound, the “Nav1.8 Max % Activity” value (human NaV 1.8) was 98%, the “% remaining” value ([2]; 0 min) was 100% and the “% remaining” value ([2]; 15 min) was 109%. For the same compound, the “% remaining” value ([2]; 30 min) was 105%, the “% remaining” value ([2]; 60 min) was 106% and the “% remaining” value ([3]; 0 min) was 100%. For the same compound, the “% remaining” value ([3]; 15 min) was 109%, the “% remaining” value ([3]; 30 min) was 105% and the “% remaining” value ([3]; 60 min) was 92.2%. The “% remaining” value ([4]; 0 min) was 100%, the “% remaining” value ([4]; 15 min) was 86.1% and the “% remaining” value ([4]; 30 min) was 85.8%. The “% remaining” value ([4]; 60 min) was 87.5%.
